Assays:
[1] = Absorption coefficient (absorbance of 0.001% solution in tetrahydrofuran); format: physicochemical
How it was run: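 Absorbance of a 0.001% (wt/vol) solution in tetrahydrofuran recorded by spectrophotometer. Absorption maximum wavelength (λmax) taken from the spectrum within 280–400 nm.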

[2] = Solubility in PGME, PGMEA and ethyl lactate; format: physicochemical
[3] = Transparency: coloring of the photopolymerization initiator before and after exposure; format: physicochemical; settings: 40 g/L in tetrahydrofuran; 365 nm UV, 850 to 2,550 mJ/cm^2; compared with compound C-1
Experimental: An influence on the coloring of a photopolymerization initiator after its exposure was confirmed because the photopolymerization initiator was required to have transparency. Specifically, as described below, the degrees of coloring (color change) of the photopolymerization initiator itself before and after its exposure were evaluated by measuring its absorbance. A 40 g/L solution of the compound 4 of Synthesis Example 4 in tetrahydrofuran was prepared, and the solution was loaded into a lidded UV cell made of quartz (12.5×12.5×58 mm) having an optical path length of 1 cm. The absorption spectrum of the solution before its exposure was measured with a spectrophotometer (manufactured by Hitachi High-Technologies Corporation, trade name: “U-3900H”). After that, the quartz surface of the UV cell was vertically irradiated with 850 mJ/cm^2 of UV light having a wavelength of 365 nm by using an exposure apparatus (manufactured by Ushio Inc., trade name: “[…]” (ML-251A/B) and optical unit (PM25C-100)), and the absorption spectrum of the solution was measured again. The foregoing operations were repeatedly performed, and a change in absorbance of the solution by UV irradiation was measured. […]
The axis of abscissa of the graph of FIG. 1(A) indicates the measurement wavelength (nm) of an absorption spectrum and the axis of ordinate thereof indicates an absorbance (Abs.) at the wavelength. […]

[4] = Evaluation 1: 20-μm pattern line width of transparent photosensitive composition; settings: transparent composition, initiator 0.4 mmol
[5] = Evaluation 3: 20-μm pattern line width of black photosensitive composition; settings: black composition (carbon black, cardo resin), initiator 0.4 mmol
How it was run: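 Composition spin-coated on glass to 1.0 μm dry thickness, dried 90 °C for 10 min, exposed at 10–80 mJ/cm^2 via high-pressure mercury lamp through 20 μm negative mask, developed in 0.1 wt % TMAH, rinsed. Line width of remaining cured film measured; larger width means higher sensitivity.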

[6] = 0.001% (wt/vol) solution in tetrahydrofuran

- Λ max (absorption maximum wavelength) ([1]; 0.001% (wt/vol) in tetrahydrofuran, from 280 nm to 400 nm): 330.5 nm
- Absorption coefficient at 365 nm [1, 6]: 2.2 mL/mg/cm
- Absorption coefficient at Λ max [1, 6]: 85.7 mL/mg/cm
- solubility (in words) ([2]; photopolymerization initiator containing the compound): additionally excellent solubility
- influence on the coloring by the exposure [3]: small
Compound: CCCC1(CCC)c2cc(C(=O)c3ccccc3C)ccc2-c2ccc(/C(C)=N/OC(C)=O)cc21 [Compound 4]
- Solubility Ethyl lactate ([2]; in 100 parts by weight of ethyl lactate, room temperature): B (An amount in the range of from 5 parts by weight or more to less than 10 parts by weight of the photopolymerization initiator is dissolved.)
- Solubility PGMEA ([2]; in 100 parts by weight of propylene glycol monomethyl ether acetate, room temperature): A (10 Parts by weight or more of the photopolymerization initiator is dissolved.)
- Solubility PGME ([2]; in 100 parts by weight of propylene glycol monomethyl ether, room temperature): B (An amount in the range of from 5 parts by weight or more to less than 10 parts by weight of the photopolymerization initiator is dissolved.)
- 20-μm pattern line width ([4]; exposure energy quantity 10 mJ/cm^2): 19.4
- 20-μm pattern line width ([4]; exposure energy quantity 20 mJ/cm^2): 20.0
- 20-μm pattern line width ([4]; exposure energy quantity 40 mJ/cm^2): 21.3
- 20-μm pattern line width ([4]; exposure energy quantity 60 mJ/cm^2): 22.1
- 20-μm pattern line width ([4]; exposure energy quantity 80 mJ/cm^2): 22.4
- 20-μm pattern line width ([5]; 10 mJ/cm^2): 19.4
- 20-μm pattern line width ([5]; 20 mJ/cm^2): 20.0
- 20-μm pattern line width ([5]; 40 mJ/cm^2): 21.3
- 20-μm pattern line width ([5]; 60 mJ/cm^2): 22.1
- 20-μm pattern line width ([5]; 80 mJ/cm^2): 22.4

— US9684238B2, “Fluorene-type compound, photopolymerization initiator comprising said fluorene-type compound, and photosensitive composition containing said photopolymerization initiator” (TOKYO OHKA KOGYO CO., LTD., priority 2012, dated 2017)
